Experimental data from patent US10925876B2, “Methods for using triazolo-pyrazinyl soluble guanylate cyclase activators in fibrotic disorders” (Merck Sharp & Dohme Corp., priority 2016, dated 2021).

molecular target: T1, sGC α1/β1 heterodimer (Homo sapiens, UniProt Q02108+Q02153); assay: Cell-Based sGC Functional Assay (CASA Assay), cGMP generation in CHO-K1/sGC cells; settings: maximum cGMP production of Compound A set to 100% activation, read-out: % Act. (percent activation relative to Compound A)
T1 construct: expressed in transfected cells
T1 sequence (Q02108 1-690): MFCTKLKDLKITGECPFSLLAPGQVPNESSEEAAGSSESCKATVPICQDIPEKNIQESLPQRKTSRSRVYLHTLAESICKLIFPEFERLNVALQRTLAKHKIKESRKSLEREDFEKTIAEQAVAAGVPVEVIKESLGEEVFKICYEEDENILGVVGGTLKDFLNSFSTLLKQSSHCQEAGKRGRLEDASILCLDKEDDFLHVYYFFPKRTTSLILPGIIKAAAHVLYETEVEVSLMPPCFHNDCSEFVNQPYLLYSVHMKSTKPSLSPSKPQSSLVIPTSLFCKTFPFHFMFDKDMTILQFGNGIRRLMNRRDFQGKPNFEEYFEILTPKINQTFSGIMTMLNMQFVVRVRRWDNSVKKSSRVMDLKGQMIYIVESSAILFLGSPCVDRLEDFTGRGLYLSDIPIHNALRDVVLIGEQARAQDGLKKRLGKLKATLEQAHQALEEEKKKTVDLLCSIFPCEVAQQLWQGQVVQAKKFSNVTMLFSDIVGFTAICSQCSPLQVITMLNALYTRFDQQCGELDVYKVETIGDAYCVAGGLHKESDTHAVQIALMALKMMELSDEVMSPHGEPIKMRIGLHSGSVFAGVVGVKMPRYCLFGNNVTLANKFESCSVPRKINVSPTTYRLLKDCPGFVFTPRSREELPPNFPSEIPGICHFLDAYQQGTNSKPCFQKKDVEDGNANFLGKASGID
T1 sequence (Q02153 1-619): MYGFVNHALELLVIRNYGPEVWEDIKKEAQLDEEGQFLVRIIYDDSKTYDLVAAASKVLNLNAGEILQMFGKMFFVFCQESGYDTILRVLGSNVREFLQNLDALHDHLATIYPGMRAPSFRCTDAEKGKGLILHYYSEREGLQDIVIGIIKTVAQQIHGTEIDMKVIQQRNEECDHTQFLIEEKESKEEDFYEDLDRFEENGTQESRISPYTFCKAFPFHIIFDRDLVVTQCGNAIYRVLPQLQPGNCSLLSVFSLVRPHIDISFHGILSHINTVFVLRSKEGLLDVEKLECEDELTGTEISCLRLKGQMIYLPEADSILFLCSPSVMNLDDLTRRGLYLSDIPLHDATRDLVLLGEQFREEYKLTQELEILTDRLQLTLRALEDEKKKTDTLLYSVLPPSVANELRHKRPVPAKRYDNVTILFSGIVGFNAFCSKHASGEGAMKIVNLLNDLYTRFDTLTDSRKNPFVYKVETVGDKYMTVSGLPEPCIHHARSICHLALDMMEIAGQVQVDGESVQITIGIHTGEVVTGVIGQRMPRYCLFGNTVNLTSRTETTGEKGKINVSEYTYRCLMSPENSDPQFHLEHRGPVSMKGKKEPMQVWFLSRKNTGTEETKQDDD
Description: sGC is a heme-containing enzyme that converts GTP to secondary messenger cGMP. Increases in cGMP levels affect several physiological processes including vasorelaxation through multiple downstream pathways. […] Heme-dependent activators (HDAs) preferentially activate sGC containing a ferrous heme group. To determine the effect of sGC activators on enzyme activity, the CASA assay was developed to monitor the generation of cGMP in a cell line that stably expresses the heterodimeric sGC protein.
A CHO-K1 cell line stably expressing the sGC α1/β1 heterodimer was generated using a standard transfection protocol. CHO-K1 cells were transfected with plasmids pIREShyghsGCα1 and pIRESneo-hsGCβ1 simultaneously using FUGENE reagent. Clones that stably express both subunits were selected with hygromycin and neomycin for ˜2 weeks. Clone #7 was chosen for the assay and was designated CHO-K1/sGC. CHO-K1/sGC cells were maintained in F-K12 medium containing 10% heat-inactivated Fetal Bovine Serum (FBS), 100 μg/mL penicillin/streptomycin, 0.5 mg/mL hygromycin and 0.25 mg/mL G418. The cells were then cryopreserved in LN2. On the day of the assay, cells thawed and resuspended in EBSS Assay Buffer (Sigma, E3024) supplemented with 5 mM MgCl2, 10 mM HEPES (4-(2-hydroxyethyl)piperazine-1-ethanesulfonic acid) and 0.05% BSA (bovine serum albumin) (EAB) and cell density was then adjusted to 4×10^5/mL with EAB. IBMX (3-isobutyl-1-methylxanthin, 0.5 mM) was added to inhibit degradation of cGMP. Compounds were diluted from DMSO stock solutions and added to the assay at a final DMSO concentration of 2.5%. Cells were incubated with compounds in the presence and absence of 1 μM of Diethylenetriamine/nitric oxide adduct (DETA-NO; Sigma, 17018) for 1 hr at 37° C. At the end of the incubation period, the reaction was terminated and the cells were lysed with the detection reagents from Cisbio Kits. The level of intracellular cGMP was determined using an HTRF-based assay kit (CisBio, 62GM2PEC), which detects the displacement of a fluorescence labeled cGMP from its specific antibody. The cGMP produced by test compounds was directly compared to the maximum cGMP production (this value was set to equal 100% activation.) of the published sGC-HDA Compound A:
[drawing 298] (Example 1 in WO 2010/065275, published Jun. 10, 2010). The test compounds' activities were then expressed as a percentage of Compound A, the standard in every experiment. This percent activation was calculated either in the presence or absence of DETA-NO which was then plotted. IP and maximum fold induction was derived using ADA analysis software for 4P fit.

| Emax [%] | SMILES |
| --- | --- |
| 159 | CCCc1nc(-c2nc(N)c3c(n2)NC(=O)C3(C)c2ccc(Cl)cc2)cn2nc(C)nc12 (centres unmarked) [Example 93A, 4-amino-5-(4-chlorophenyl)-5-methyl-2-(2-methyl-8-propyl-[1,2,4]triazolo[1,5-a]pyrazin-6-yl)-5H-pyrrolo[2,3-d]pyrimidin-6(7H)-one] |
| 101 | CC1(c2ccc(Cl)cc2)C(=O)Nc2nc(-c3cn4ncnc4c(CCCC(F)(F)F)n3)nc(N)c21 (centres unmarked) [Example 29A, 4-amino-5-(4-chlorophenyl)-5-methyl-2-(8-(4,4,4-trifluorobutyl)-[1,2,4]triazolo[1,5-a]pyrazin-6-yl)-5H-pyrrolo[2,3-d]pyrimidin-6(7H)-one] |
| 125 | Nc1nc(-c2cn3ncnc3c(CCC(F)(F)F)n2)nc2c1C(c1ccc(Cl)cn1)(C1CC1)C(=O)N2 (centres unmarked) [Example 82A, 4-amino-5-(5-chloropyridin-2-yl)-5-cyclopropyl-2-(8-(3,3,3-trifluoropropyl)-[1,2,4]triazolo[1,5-a]pyrazin-6-yl)-5H-pyrrolo[2,3-d]pyrimidin-6(7H)-one] |
| 127 | Cc1nc(C2(C)C(=O)Nc3nc(-c4cn5ncnc5c(CCCC(F)(F)F)n4)nc(N)c32)ccc1C(F)(F)F (racemic) [Example 49B, 4-amino-5-methyl-5-(6-methyl-5-(trifluoromethyl)pyridin-2-yl)-2-(8-(4,4,4-trifluorobutyl)-[1,2,4]triazolo[1,5-a]pyrazin-6-yl)-5H-pyrrolo[2,3-d]pyrimidin-6(7H)-one] |
| 63 | Cc1ccc(C2(C)C(=O)Nc3nc(-c4cn5ncnc5c(CCCC(F)(F)F)n4)nc(O)c32)nc1 (centres unmarked) [Example 149B, 4-hydroxy-5-methyl-5-(5-methylpyridin-2-yl)-2-(8-(4,4,4-trifluorobutyl)-[1,2,4]triazolo[1,5-a]pyrazin-6-yl)-5H-pyrrolo[2,3-d]pyrimidin-6(7H)-one] |
| 77 | CC(F)(F)c1ccc(C2(C)C(=O)Nc3nc(-c4cn5ncnc5c(CCC(F)(F)C(F)(F)F)n4)nc(N)c32)cn1 (racemic) [Example 16B, 4-amino-5-(6-(1,1-difluoroethyl)pyridin-3-yl)-5-methyl-2-(8-(3,3,4,4,4-pentafluorobutyl)-[1,2,4]triazolo[1,5-a]pyrazin-6-yl)-5H-pyrrolo[2,3-d]pyrimidin-6(7H)-one] |
| 109 | Cc1ccc(C2(C)C(=O)Nc3nc(-c4cn5ncnc5c(CCC(F)(F)C(F)(F)F)n4)nc(O)c32)nc1 (centres unmarked) [Example 130B, 4-hydroxy-5-methyl-5-(5-methylpyridin-2-yl)-2-(8-(3,3,4,4,4-pentafluorobutyl)-[1,2,4]triazolo[1,5-a]pyrazin-6-yl)-5H-pyrrolo[2,3-d]pyrimidin-6(7H)-one] |
| 210 | CCCc1nc(-c2nc(N)c3c(n2)NC(=O)C3(C)c2ccc(F)cn2)cn2ncnc12 (centres unmarked) [Example 54B, 4-amino-5-(5-fluoropyridin-2-yl)-5-methyl-2-(8-propyl-[1,2,4]triazolo[1,5-a]pyrazin-6-yl)-5H-pyrrolo[2,3-d]pyrimidin-6(7H)-one] |
| 99 | CC1(c2ccc(C#N)cn2)C(=O)Nc2nc(-c3cn4ncnc4c(CCC(F)(F)C(F)(F)F)n3)nc(O)c21 (centres unmarked) [Example 131A, 6-(4-hydroxy-5-methyl-6-oxo-2-(8-(3,3,4,4,4-pentafluorobutyl)-[1,2,4]triazolo[1,5-a]pyrazin-6-yl)-6,7-dihydro-5H-pyrrolo[2,3-d]pyrimidin-5-yl)nicotinonitrile] |
| 119 | CCCc1nc(-c2nc(N)c3c(n2)NC(=O)C3(c2ccc(Cl)cn2)C2CC2)cn2ncnc12 (centres unmarked) [Example 57A, 4-amino-5-(5-chloropyridin-2-yl)-5-cyclopropyl-2-(8-propyl-[1,2,4]triazolo[1,5-a]pyrazin-6-yl)-5H-pyrrolo[2,3-d]pyrimidin-6(7H)-one] |
| 119 | CCCc1nc(-c2nc(N)c3c(n2)NC(=O)C3(c2ccc(F)cn2)C2CC2)cn2ncnc12 (centres unmarked) [Example 59A, 4-amino-5-cyclopropyl-5-(5-fluoropyridin-2-yl)-2-(8-propyl-[1,2,4]triazolo[1,5-a]pyrazin-6-yl)-5H-pyrrolo[2,3-d]pyrimidin-6(7H)-one] |
| 78 | O=C1Nc2nc(-c3cn4ncnc4c(CCC(F)(F)C(F)(F)F)n3)nc(O)c2C1(c1ccc(F)c(F)c1)C1CC1 (centres unmarked) [Example 123A, 5-cyclopropyl-5-(3,4-difluorophenyl)-4-hydroxy-2-(8-(3,3,4,4,4-pentafluorobutyl)-[1,2,4]triazolo[1,5-a]pyrazin-6-yl)-5H-pyrrolo[2,3-b]pyrimidin-6(7H)-one] |
| 71 | Cc1ccc(C2(C)C(=O)Nc3nc(-c4cn5ncnc5c(CCC(F)(F)C(F)(F)F)n4)nc(N)c32)nc1 (centres unmarked) [Example 19B, 4-amino-5-methyl-5-(5-methylpyridin-2-yl)-2-(8-(3,3,4,4,4-pentafluorobutyl)-[1,2,4]triazolo[1,5-a]pyrazin-6-yl)-5H-pyrrolo[2,3-d]pyrimidin-6(7H)-one] |
| 96 | CCCc1nc(-c2nc(N)c3c(n2)NC(=O)[C@@]3(C)c2ccc(F)cc2)cn2ncnc12 [Example 52A, (S)-4-amino-5-(4-fluorophenyl)-5-methyl-2-(8-propyl-[1,2,4]triazolo[1,5-a]pyrazin-6-yl)-5,7-dihydro-6H-pyrrolo[2,3-d]pyrimidin-6-one] |
| 82 | CCCCc1nc(-c2nc(N)c3c(n2)NC(=O)C3(c2ccc(C)cn2)C2CC2)cn2ncnc12 (racemic) [Example 72B, 4-amino-2-(8-butyl-[1,2,4]triazolo[1,5-a]pyrazin-6-yl)-5-cyclopropyl-5-(5-methylpyridin-2-yl)-5H-pyrrolo[2,3-d]pyrimidin-6(7H)-one] |
| 171 | C[C@@]1(c2ccc(F)cc2)C(=O)Nc2nc(-c3cn4ncnc4c(Cc4cccc(O)c4)n3)nc(N)c21 [Example 113B, (S)-4-amino-5-(4-fluorophenyl)-2-(8-(3-hydroxybenzyl)-[1,2,4]triazolo[1,5-a]pyrazin-6-yl)-5-methyl-5H-pyrrolo[2,3-d]pyrimidin-6(7H)-one] |
| 102 | CC1(c2ccc(Cl)cc2)C(=O)Nc2nc(-c3cn4ncnc4c(CCC(F)(F)C(F)(F)F)n3)nc(O)c21 (centres unmarked) [Example 126A, 5-(4-chlorophenyl)-4-hydroxy-5-methyl-2-(8-(3,3,4,4,4-pentafluorobutyl)-[1,2,4]triazolo[1,5-a]pyrazin-6-yl)-5H-pyrrolo[2,3-d]pyrimidin-6(7H)-one] |
